According to PMC9481570, “A small molecule antagonist of SMN disrupts the interaction between SMN and RNAP II” (Nature Communications, 2022):

Tests used:
LBR = target: T1, LBR (Homo sapiens, UniProt Q14739); assay: ITC binding to LBR; conditions: Fig. 1c
T1 construct: LBR (aa 1–67); His (N, cleaved yes); made in house; host or cells: E. coli BL21 (DE3) Codon plus RIL
Excerpt: (§1) The coding DNA fragments of following Tudor domains were cloned into pET28-MHL vector: SMN (aa 82–147), UHRF1 (aa 126–285), SMNDC1 (aa 53–130), TDRD3 (aa 554–611), SND1 (aa 650–910), TDRD2 (aa 327–420), FXR1 (aa 2–132), PHF1 (aa 28–87), SGF29 (aa 115–293), JMJD2A (aa 897–1101), 53BP1 (aa 1483–1606), SETDB1 (aa 190–410), LBR (aa 1–67), ZGPAT (aa 120–271). The coding regions of chromodomain of CBX7 (aa 8–62), PWWP domain of DNMT3A (aa 275–417), WD40 repeats of WDR5 (aa 24–334) and CW domain of ZCWPW2 (aa 21–78) were also subcloned into pET28-MHL vector to generate N-terminally His-tagged fusion protein. The MBT repeats of L3MBTL1 (aa 200–522) and L3MBTL2 (aa 170–625) were subcloned into pET28GST-LIC vector to generate N-terminally GST-His-tagged fusion protein. All the plasmids were generated by ligase independent cloning (Vazyme Biotech, C112 or ABclonal Technology, RK21020). […] The molecular weight of all protein samples was measured by mass spectrometry.
(§2) For the ITC measurement, the concentrated proteins were diluted into 20 mM Tris-HCl, pH 7.5, 150 mM NaCl (ITC buffer); the lyophilized compounds were dissolved in the same buffer, and the pH value was adjusted by adding 2 M NaOH or 2 M HCl. […] Compound concentrations were calculated from the mass and the volume of the solvent. […]

SMNDC1 = target: T2, SMNDC1 (Homo sapiens, UniProt O75940); assay: ITC binding to SMNDC1; conditions: Supplementary Fig. 2; read-out: Kd, ITC binding curve, SMNDC1
T2 construct: SMNDC1 (aa 53–130); His (N, cleaved yes); made in house; host or cells: E. coli BL21 (DE3) Codon plus RIL
T2 sequence (O75940 53-130): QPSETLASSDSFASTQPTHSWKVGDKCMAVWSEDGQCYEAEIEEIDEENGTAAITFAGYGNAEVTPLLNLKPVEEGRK
Excerpt: as §1, §2

ZCWPW2 (CW) = target: T3, ZCWPW2 (CW) (Homo sapiens, UniProt Q504Y3); assay: ITC binding to CW domain of ZCWPW2; conditions: Fig. 1c
T3 construct: ZCWPW2 (aa 21–78); His (N, cleaved yes); made in house; host or cells: E. coli BL21 (DE3) Codon plus RIL
T3 sequence (Q504Y3 21-78): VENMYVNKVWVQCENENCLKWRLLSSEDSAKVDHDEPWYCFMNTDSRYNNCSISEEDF
Excerpt: as §1, §2

T1 sequence (Q14739 1-67): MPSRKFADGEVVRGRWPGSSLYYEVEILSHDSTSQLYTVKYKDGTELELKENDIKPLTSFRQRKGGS

Cn1c2c(c(=N)c3c1CCC3)CCC2 [Compound 1, 4-methyl-2,3,4,5,6,7-hexahydrodicyclopenta[b,e]pyridin-8(1H)-imine]
Kd (LBR): > 244 µM
Kd (SMNDC1): 2.8 ± 0.2 µM
Kd (ZCWPW2 (CW)): > 244 µM
